Data: patent US5190981A, “Formulation containing S(+) enantiomer of flurbiprofen or ketoprofen and method of use for oral administration for prevention and treatment of bone loss associated with periodontal disease” (Sepracor Inc., priority 1991, dated 1993)

How the values were obtained:
[1] = Bioavailability of flurbiprofen enantiomers in toothpaste: five-way blinded crossover, blood levels over 24 h after toothbrushing, chiral HPLC; assay type: in vivo, human (healthy adult volunteers); conditions: for initial plasma concentrations of each enantiomer across formulations: from toothpaste formulation to toothpaste formulation; for initial plasma concentrations of each enantiomer across formulations / accumulation of enantiomers: data not shown; for accumulation of enantiomers: repeated use
From the text: The purpose of this study was to show how well subjects tolerated three strengths of S(+) flurbiprofen toothpaste (1%, 0.5% and 0.25%), as well as the relationship between dose and blood level of the active isomer in comparison with an identical formulation of racemic flurbiprofen (1%) or an intermediate formulation of 80% S(+) flurbiprofen and 20% R(-) flurbiprofen (1%). A toothpaste containing one of the three concentrations of S(+) flurbiprofen, the 1% intermediate formulation or 1% racemic flurbiprofen were used in the study.
The drug is an acid and, therefore, the formulation was adjusted to pH 5.6, in order to improve buccal absorption. The formulation also contained menthol or wintergreen in order to mask the slight bitter taste of the drug. Standard formulation techniques were used.
Eight healthy adult volunteers were selected as subjects for the five-way, blinded, crossover study of flurbiprofen blood levels over a 24 hour period following toothbrushing with toothpastes containing the different concentrations of S(+) flurbiprofen and R(-) flurbiprofen. Each volunteer brushed with about 1 g of a toothpaste formulation for 1 minute followed by rinsing twice daily for 3 days. On the fourth morning, brushing with 1 g of the toothpaste formulation was repeated and blood samples were collected for subsequent analysis at -0.25, 0.25, 1, 2, 4, 8, 12, 23 and 24 hours relative to this toothbrushing episode. Each treatment period was followed by a washout interval of 4 days before the next toothpaste formulation was provided.
The concentration of the individual enantiomers was determined by HPLC on chiral-APG (5μ. 100×4 mm). The mobile phase was 1% 2-propanol in 10 mM NaH2 PO4 buffer, pH 7.0, at 0.6 ml/min. The enantiomers were detected by fluorescence monitoring with excitation at 250 nm and emission at 315 nm. The individual enantiomers were detectable down to 5-10 ng/ml. Standard and calibration curves were prepared for each set of samples and an internal standard of S(+) ibuprofen was added to all samples. Pharmacokinetic calculations were non-compartmental and employed conventional data analysis (linear trapezoidal role) to determine the concentrations or total amounts for each enantiomer and formulation that were analyzed.
The results of this study are presented as follows: 1% by weight racemic flurbiprofen (1S, 1R); 1% by weight 80% S(+) flurbiprofen, 20% R(-) flurbiprofen as a eutectic mixture (2S, 2R); 1% by weight 95% S(+) flurbiprofen, 5% R(-) flurbiprofen (3S); 0.5% by weight 95% S(+) fluriprofen, 5% R(-) flurbiprofen (4S); and 0.25% by weight 95% S(+) flurbiprofen, 5% R(-) flurbiprofen (5S). It should be noted that approximately equivalent amounts (5 mg) of S(+)flurbiprofen were administered in results denoted 1S and 4S. The results from the present study have been further compared with calculations based on results from a previous study by Stalker et al. "Bioavailability of Flurbiprofen following Buccal Administration", Pharm Res. 8, 605-608 (1991). The calculated amounts of administered enantiomer in this previous study are 5 mg buccal S(+) flurbiprofen as a mouthwash (buccal S) or 5 mg PO S(+) flurbiprofen (PO S).

[2] = oral; cited from earlier work

SMILES | absorption of S(+) enantiomer alone vs as racemic mixture ([1]; comparison of 1S and 4S, toothpaste) | blood concentration and persistence, toothpaste vs mouthwash or PO ([1]; equivalent amounts of S(+) flurbiprofen, e.g. 1S and 4S compared to buccal S or PO S) | initial plasma concentrations of each enantiomer across formulations [1] | dose relationship of plasma concentrations, 0.25% to 0.5% ([1]; toothpaste between 0.25% and 0.5% by weight) | dose relationship of plasma concentrations at 1% ([1]; toothpaste, 1% by weight) | accumulation of enantiomers ([1]; toothpaste) | absorption when taken orally [2]
C[C@H](C(=O)O)c1ccc(-c2ccccc2)c(F)c1 [S(+) flurbiprofen] | preferentially absorbed when administered alone in a toothpaste formulation than when administered as a racemic mixture | higher and its availability is more persistent when in a toothpaste formulation | approximately the same | dose dependent relationship of plasma concentrations | non-linear at 1% by weight | no accumulation | readily absorbed
C[C@@H](C(=O)O)c1ccc(-c2ccccc2)c(F)c1 [R(-) flurbiprofen] |  |  | approximately the same |  |  | no accumulation | 
